# According to patent publication US10722501B2 (BAYER AKTIENGESELLSCHAFT, priority 2016, dated 2020):
# pIC50: −log10 of the molar value.
# Target: T1, recombinant full-length human prolyl endopeptidase (PREP) (Homo sapiens, UniProt P48147)
# T1 construct: To recombinant full-length human prolyl endopeptidase (PREP, R&D-Systems, 4308-SE); purchased R&D-Systems 4308-SE
# T1 sequence (P48147 1-710): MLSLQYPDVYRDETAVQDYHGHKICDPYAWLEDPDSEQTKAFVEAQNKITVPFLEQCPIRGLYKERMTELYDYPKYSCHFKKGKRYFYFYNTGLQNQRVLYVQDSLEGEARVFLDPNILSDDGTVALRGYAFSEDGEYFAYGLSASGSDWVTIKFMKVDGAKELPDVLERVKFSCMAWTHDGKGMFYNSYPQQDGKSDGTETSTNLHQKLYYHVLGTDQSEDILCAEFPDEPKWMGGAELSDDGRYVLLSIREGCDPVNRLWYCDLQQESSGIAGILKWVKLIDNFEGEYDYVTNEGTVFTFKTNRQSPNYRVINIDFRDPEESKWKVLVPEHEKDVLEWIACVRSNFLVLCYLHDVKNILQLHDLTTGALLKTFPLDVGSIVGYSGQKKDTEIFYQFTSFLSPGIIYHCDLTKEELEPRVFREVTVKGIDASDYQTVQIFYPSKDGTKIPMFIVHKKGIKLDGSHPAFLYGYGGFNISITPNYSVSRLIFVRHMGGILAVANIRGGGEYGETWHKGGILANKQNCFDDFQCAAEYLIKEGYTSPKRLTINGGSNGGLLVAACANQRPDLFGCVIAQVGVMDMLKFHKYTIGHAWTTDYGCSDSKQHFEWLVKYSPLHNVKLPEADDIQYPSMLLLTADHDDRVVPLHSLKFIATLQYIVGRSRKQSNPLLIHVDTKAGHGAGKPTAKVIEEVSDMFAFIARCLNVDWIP
# Assay: Biochemical human prolyl endopeptidase (PREP) assay with fluorescently labelled substrate
# Conditions: substrate Z-Gly-Pro-AMC 50 μM, 32° C., 60 min; some as mean values from multiple independent determinations
# How it was run: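 0.4 nM (final, example) recombinant PREP in pH 7.5 Tris buffer with EDTA, GSH, BSA and Brij-35; compounds at 1 nM to 30 μM. Reaction started with 50 μM Z-Gly-Pro-AMC and followed by fluorescence (ex 360/em 465 nm) at 32° C for 60 min. IC50 interpolated from percent activity based on initial slopes.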
row,SMILES,pIC50
1,"CCn1nc(C(F)(F)F)cc1Cn1nc2n(c1=O)[C@H](C(=O)N1CCC(F)(F)C1)CCC2 [Example 362, (5S)-5-[(3,3-Difluoropyrrolidin-1-yl)carbonyl]-2-{[1-ethyl-3-(trifluoromethyl)-1H-pyrazol-5-yl]methyl}-5,6,7,8-tetrahydro[1,2,4]triazolo[4,3-a]pyridin-3(2H)-one]",8.87
2,"O=C(C1CCc2nn(Cc3ccc(Cl)nc3)c(=O)n21)N1CCC(F)(F)C1 (racemic) [Example 166, (5RS)-2-[(6-Chloropyridin-3-yl)methyl]-5-[(3,3-difluoropyrrolidin-1-yl)carbonyl]-2,5,6,7-tetrahydro-3H-pyrrolo[2,1-c][1,2,4]triazol-3-one]",7.66
3,"O=C([C@@H]1CCCc2nn(Cc3ccc(F)cc3Cl)c(=O)n21)N1CCC(F)(F)C1 [Example 477, (5S)-2-(2-Chloro-4-fluorobenzyl)-5-[(3,3-difluoropyrrolidin-1-yl)carbonyl]-5,6,7,8-tetrahydro[1,2,4]triazolo[4,3-a]pyridin-3(2H)-one]",9.68
4,"O=C([C@@H]1CCCc2nn(Cc3ccc(C(F)F)nc3)c(=O)n21)N1CC[C@H](F)C1 [Example 206, (5S)-2-{[6-(Difluoromethyl)pyridin-3-yl]methyl}-5-{[(3S)-3-fluoropyrrolidin-1-yl]carbonyl}-5,6,7,8-tetrahydro[1,2,4]triazolo[4,3-a]pyridin-3(2H)-one]",8.92
5,"CCn1nc(C(F)(F)F)cc1Cn1nc2n(c1=O)[C@H](C(=O)N1C[C@@H](F)[C@@H](F)C1)CCC2 [Example 361, (5S)-5-{[(3R,4S)-3,4-Difluoropyrrolidin-1-yl]carbonyl}-2-{[1-ethyl-3-(trifluoromethyl)-1H-pyrazol-5-yl]methyl}-5,6,7,8-tetrahydro[1,2,4]triazolo[4,3-a]pyridin-3(2H)-one]",8.92
6,"O=C(C1CCCc2nn(Cc3ccc(F)c(C(F)(F)F)c3)c(=O)n21)N1CC[C@H](O)C1 (mixture of isomers) [Example 101, (5RS)-2-[4-Fluoro-3-(trifluoromethyl)benzyl]-5-{[(3S)-3-hydroxypyrrolidin-1-yl]carbonyl}-5,6,7,8-tetrahydro[1,2,4]triazolo[4,3-a]pyridin-3(2H)-one]",8.52
7,"Cc1cccc(Cn2nc3n(c2=O)C(C(=O)N2CCCC2)CCC3)c1 (racemic) [Example 8, (5RS)-2-(3-Methylbenzyl)-5-(pyrrolidin-1-ylcarbonyl)-5,6,7,8-tetrahydro[1,2,4]triazolo[4,3-a]pyridin-3(2H)-one]",9.00
8,"O=C([C@@H]1CCCc2nn(Cc3nnc(C(F)(F)F)o3)c(=O)n21)N1C[C@@H](F)[C@@H](F)C1 [Example 543, (5S)-5-{[(3R,4S)-3,4-Difluoropyrrolidin-1-yl]carbonyl}-2-{[5-(trifluoromethyl)-1,3,4-oxadiazol-2-yl]methyl}-5,6,7,8-tetrahydro[1,2,4]triazolo[4,3-a]pyridin-3(2H)-one]",7.47
9,"O=C(C1CC(C(F)(F)F)Cc2nn(Cc3ccc(Cl)nc3)c(=O)n21)N1CC[C@H](F)C1 (mixture of isomers) [Example 242, (5RS,7RS)-2-[(6-Chloropyridin-3-yl)methyl]-5-{[(3S)-3-fluoropyrrolidin-1-yl]carbonyl}-7-(trifluoromethyl)-5,6,7,8-tetrahydro[1,2,4]triazolo[4,3-a]pyridin-3(2H)-one]",8.70
10,"O=C([C@@H]1CCCc2nn(Cc3csc(C(F)(F)F)n3)c(=O)n21)N1CCC(F)(F)C1 [Example 364, (5S)-5-[(3,3-Difluoropyrrolidin-1-yl)carbonyl]-2-{[2-(trifluoromethyl)-1,3-thiazol-4-yl]methyl}-5,6,7,8-tetrahydro[1,2,4]triazolo[4,3-a]pyridin-3(2H)-one]",7.54
11,"CC1Cc2nn(Cc3ccc(C(F)(F)F)nc3)c(=O)n2C(C(=O)N2CC[C@H](F)C2)C1 (single isomer, unassigned) [Example 138]",9.00
12,"COc1ccc(CCn2nc3n(c2=O)[C@H](C(=O)N2CC(F)(F)C2)CCC3)cc1 [Example 523, (5S)-5-[(3,3-Difluoroazetidin-1-yl)carbonyl]-2-[2-(4-methoxyphenyl)ethyl]-5,6,7,8-tetrahydro[1,2,4]triazolo[4,3-a]pyridin-3(2H)-one]",7.55
13,"O=C(C1CCCc2nn(Cc3cc(C(F)(F)F)c(Cl)cn3)c(=O)n21)N1CCCC1 (single isomer, unassigned) [Example 107]",8.68
14,"O=C(C1CCc2nn(Cc3ccnc(C(F)(F)F)c3F)c(=O)n21)N1CC(F)C1 (racemic) [Example 182, (5RS)-5-[(3-Fluoroazetidin-1-yl)carbonyl]-2-{[3-fluoro-2-(trifluoromethyl)pyridin-4-yl]methyl}-2,5,6,7-tetrahydro-3H-pyrrolo[2,1-c][1,2,4]triazol-3-one]",7.43
15,"O=C([C@@H]1CCCc2nn(Cc3cnc(C(F)(F)F)nc3)c(=O)n21)N1CC[C@H](F)C1 [Example 559, (5S)-5-{[(3S)-3-Fluoropyrrolidin-1-yl]carbonyl}-2-{[2-(trifluoromethyl)pyrimidin-5-yl]methyl}-5,6,7,8-tetrahydro[1,2,4]triazolo[4,3-a]pyridin-3(2H)-one]",7.46
16,"O=C(C1CC(C(F)(F)F)Cc2nn(Cc3ccc(C(F)(F)F)nc3)c(=O)n21)N1CC[C@H](F)C1 (mixture of isomers) [Example 235, (5RS,7RS)-5-{[(3S)-3-Fluoropyrrolidin-1-yl]carbonyl}-7-(trifluoromethyl)-2-{[6-(trifluoromethyl)pyridin-3-yl]methyl}-5,6,7,8-tetrahydro[1,2,4]triazolo[4,3-a]pyridin-3(2H)-one]",8.17
17,"Cc1ccc(Cn2nc3n(c2=O)[C@H](C(=O)N2CC[C@H](F)C2)CCC3)cc1 [Example 110, (5S)-5-{[(3S)-3-Fluoropyrrolidin-1-yl]carbonyl}-2-(4-methylbenzyl)-5,6,7,8-tetrahydro[1,2,4]triazolo[4,3-a]pyridin-3(2H)-one]",9.49
18,"O=C([C@@H]1CCC(F)(F)c2nn(Cc3ccc(Cl)cn3)c(=O)n21)N1CCC(F)(F)C1 [Example 586, (5S)-2-[(5-Chloropyridin-2-yl)methyl]-5-[(3,3-difluoropyrrolidin-1-yl)carbonyl]-8,8-difluoro-5,6,7,8-tetrahydro[1,2,4]triazolo[4,3-a]pyridin-3(2H)-one]",7.85
19,O=C(C1CCCc2nn(Cc3cc(F)cc(C(F)(F)F)c3)c(=O)n21)N1CCCC1 (racemic) [Example 72],9.08
20,"O=C(C1CC(C(F)(F)F)Cc2nn(Cc3ncc(F)cc3F)c(=O)n21)N1CCC(F)(F)C1 (racemic) [Example 573, (5RS,7RS)-2-[(3,5-Difluoropyridin-2-yl)methyl]-5-[(3,3-difluoropyrrolidin-1-yl)carbonyl]-7-(trifluoromethyl)-5,6,7,8-tetrahydro[1,2,4]triazolo[4,3-a]pyridin-3(2H)-one]",8.23
21,"CO[C@H]1CCN(C(=O)[C@@H]2CCCc3nn(Cc4ccc(C)cc4)c(=O)n32)C1 [Example 130, (5S)-{[(3S)-3-Methoxypyrrolidin-1-yl]carbonyl}-2-(4-methylbenzyl)-5,6,7,8-tetrahydro[1,2,4]triazolo[4,3-a]pyridin-3(2H)-one]",7.30
22,"Cc1ccc(Cn2nc3n(c2=O)C(C(=O)N2CCC4CC42)CCC3)cc1 (racemic) [Example 144, (5S)-5-[(cis)-2-Azabicyclo[3.1.0]hex-2-ylcarbonyl]-2-(4-methylbenzyl)-5,6,7,8-tetrahydro[1,2,4]triazolo[4,3-a]pyridin-3(2H)-one]",8.77
23,"O=C(C1CC(C(F)(F)F)Cc2nn(Cc3ncc(Cl)cc3F)c(=O)n21)N1CC[C@H](F)C1 (mixture of isomers) [Example 264, (5RS,7RS)-2-[(5-Chloro-3-fluoropyridin-3-yl)methyl]-5-{[(3S)-3-fluoropyrrolidin-1-yl]carbonyl}-7-(trifluoromethyl)-5,6,7,8-tetrahydro[1,2,4]triazolo[4,3-a]pyridin-3(2H)-one]",8.59
24,"COc1ccc(CCn2nc3n(c2=O)[C@H](C(=O)N2CC(F)C2)CCC3)cc1 [Example 347, (5S)-5-[(3-Fluoroazetidin-1-yl)carbonyl]-2-[2-(4-methoxyphenyl)ethyl]-5,6,7,8-tetrahydro[1,2,4]triazolo[4,3-a]pyridin-3(2H)-one]",8.32
25,"Cc1[nH]cnc1Cn1nc2n(c1=O)C(C(=O)N1CCCC1)CCC2 (racemic) [Example 24, (5RS)-2-[(5-Methyl-1H-imidazol-4-yl)methyl]-5-(pyrrolidin-1-ylcarbonyl)-5,6,7,8-tetrahydro[1,2,4]triazolo[4,3-a]pyridin-3(2H)-one]",8.31
26,"CSc1ccc(Cn2nc3n(c2=O)C(C(=O)N2CCCC2)CCC3)cc1 (racemic) [Example 30, (5RS)-2-[4-(Methylsulphanyl)benzyl]-5-(pyrrolidin-1-ylcarbonyl)-5,6,7,8-tetrahydro[1,2,4]triazolo[4,3-a]pyridin-3(2H)-one]",8.80
